Experimental data from patent publication US20140256830A1, “RESORCINOL COMPOUNDS FOR DERMATOLOGICAL USE” (Ampere Life Sciences, Inc., priority 2013, published 2014).

These molecules were tested on human neonatal epidermal melanocytes (HEMn-DP) / HaCaT cells co-culture (assay: Melanocyte-HaCaT Co-Culture Assay). Conditions: 10 μM concentration, 72 h, corrected for viability (Calcein-AM).
Type: cell-based
Protocol: Darkly pigmented human neonatal epidermal melanocytes (HEMn-DP, Invitrogen) were grown in Medium 254 with HMGS-2 supplement and P/S at 37° C. and 5% CO2. HaCaT cells were grown in DMEM, 10% FBS, P/S at 37° C., 5% CO2. Co-culture was conducted in 50% melanocyte media+50% keratinocyte media (EpiLife with EDGS, P/S). Cells were plated in the co-culture media at 40K (HaCaT) and 30K (HEMn-DP) per well in a 24-well plate. After 24 h of incubation at 37° C. and 5% CO2, media was changed to M153 (MCDB153 Sigma M7403 with NaHCO3 pH to 7.1, 2 mM Tyrosine, 10 nM NDP-aMSH, 3 ng/mL bFGF, 2.8 ug/mL Hydrocortisone, 10 ug/mL Insulin, 10 ug/mL Transferrin, and P/S), treated with compound, and incubated for 72 h at 37° C. and 5% CO2. After measuring cellular viability with Calcein-AM (RFU Ex/Em=488/525 nm), cells were lysed at 1 h at 65° C. with 1N NaOH+10% DMSO. Absorbance of cleared lysate was measured at 405 nm and 660 nm. % melanin was calculated as follows: ((Abs405DMSO−Abs660DMSO)/CalceinDMSO)−(Abs405comp−Abs660comp)/Calceincomp))/(Abs405DMSO−Abs660DMSO)/CalceinDMSO×100. At 10 μM concentration, % cellular melanin was 42% in the presence of compound 4,5CHMR.

Row | Structure (SMILES) | % cellular melanin
1 | Cc1cc(O)cc(O)c1C1CCCCC1 [4,5CHMR, 4-cyclohexyl-5-methylbenzene-1,3-diol] | 42%

The molecules below were run on mushroom tyrosinase (Sigma T3824) (assay: Mushroom Tyrosinase Inhibition Assay). Conditions: 10 μM compound, 300 μM L-Tyrosine, 84 units/mL enzyme, pH 6.5, 15 min room temperature.
Type: biochemical
Protocol: 10 μM compound, 300 μM L-Tyrosine, and 84 units/mL of mushroom tyrosinase (Sigma T3824) were combined into 0.05 M potassium monophosphate buffer at pH=6.5, and incubated for 15 min at room temperature. Absorbance was recorded at 490 nm. % tyrosinase inhibition was calculated as follows: (AbsDMSO−Abscmpd)/AbsDMSO×100. The assay was performed for various compounds described herein, as well as for control compounds 4-ethyl resorcinol (4ER), 4-isopropylresorcinol (4IPR), 4-hexylresorcinol (4HR), 4-cyclohexylresorcinol (4CHR), 5-methylresorcinol (5MR), kojic acid (KA), and hydroquinone (HQ), structures of which are shown below.

Row | Structure (SMILES) | Mushroom Tyrosinase (% remaining enzyme activity) % TYR Activity
2 | Oc1cc(O)c(Cc2ccccc2)c(C(F)(F)F)c1 [4,5BnTFMR, 2-Benzyl-1,5-dihydroxy-3-trifluoromethyl-benzene] | 93%
3 | Oc1cc(O)c(C2CCCCC2)c(F)c1 [4,5CHFR, 4-cyclohexyl-5-fluorobenzene-1,3-diol] | 1%
4 | Cc1cc(O)cc(O)c1C1CCCCC1 [4,5CHMR, 4-cyclohexyl-5-methylbenzene-1,3-diol] | 22%
5 | Oc1cc(O)c(C2CCCCC2)c(C(F)(F)F)c1 [4,5CHTFMR] | 100%
6 | Oc1cc(O)c(C2CCCCC2)c(F)c1 [4,5EFR, 4-cyclohexyl-5-fluorobenzene-1,3-diol] | 3%
7 | CCc1c(O)cc(O)cc1C(F)(F)F [4,5ETFMR, 2-Ethyl-1,5-dihydroxy-3-trifluoromethyl-benzene] | 102%
8 | Oc1ccc(C2CCCCC2)c(O)c1 [Compound 4CHR, 4-cyclohexylresorcinol, reference compound] | 0%
9 | CCc1ccc(O)cc1O [Compound 4ER, 4-ethyl resorcinol, reference compound] | 2%
10 | CCCCCCc1ccc(O)cc1O [Compound 4HR, 4-hexylresorcinol, reference compound] | 1%
11 | CC(C)c1ccc(O)cc1O [Compound 4IPR, 4-isopropylresorcinol, reference compound] | 1%
12 | Cc1cc(O)cc(O)c1 [Compound 5MR, 5-methylresorcinol, reference compound] | 100%
13 | Oc1ccc(O)cc1 [Hydroquinone, hydroquinone, reference compound] | 100%
14 | O=c1cc(CO)occ1O [Kojic Acid, kojic acid, reference compound] | 84%

The remaining lines, values ahead:

Row | Mushroom Tyrosinase (% remaining enzyme activity) % TYR Activity | Structure (SMILES)
15 | 97% | Cc1cc(O)cc(O)c1Cc1ccccc1 [4,5BnMR, 4-benzyl-5-methylbenzene-1,3-diol]
16 | 71% | Cc1cc(O)cc(O)c1C1CCCC1 [4,5CPMR, 4-cyclopentyl-5-methylbenzene-1,3-diol]
17 | 30% | Cc1cc(O)cc(O)c1C1CC1 [4,5CPrMR, 4-cyclopropyl-5-methylbenzene-1,3-diol]
18 | 93% | CCc1c(C)cc(O)cc1O [4,5EMR, 4-ethyl-5-methylbenzene-1,3-diol]
19 | 10% | CCCCCCc1c(C)cc(O)cc1O [4,5HMR, 4-hexyl-5-methylbenzene-1,3-diol]
20 | 108% | Cc1cc(O)cc(O)c1C(C)C [4,5IPMR, 4-isopropyl-5-methylbenzene-1,3-diol]
21 | 32% | Cc1cc(O)cc(O)c1CC1CCCC1 [4,5MCPMR, 4-cyclopentylmethyl-5-methylbenzene-1,3-diol]
22 | 105% | Cc1cc(O)cc(O)c1C(C)c1ccccc1 (stereo not drawn) [4,5PEMR, 4-(1-phenylethyl)-5-methylbenzene-1,3-diol]
23 | 103% | Cc1cc(O)cc(O)c1CC(F)(F)F [4,5TFEMR, 4-(2,2,2-trifluoroethyl)-5-methylbenzene-1,3-diol]
24 | 100% | CCC(C)c1c(C)cc(O)cc1O (stereo not drawn) [4,5sBMR, 4-sec-butyl-5-methylbenzene-1,3-diol]
